Experimental data reported in patent US10233180B2, “Substituted nitrogen-containing heterocyclic derivatives, pharmaceutical compositions comprising the same and applications of antitumor thereof” (ZHEJIANG UNIVERSITY, priority 2014, dated 2019).
pIC50: −log10 of the molar value.

What was measured:
[1] = target: T1, Akt1 (Homo sapiens, UniProt P31749); assay: AKT1/PKBα KinEASE FP Fluorescein Green Assay (fluorescence polarization kinase kit); format: biochemical; settings: 1 h reaction, read-out: Inhibitory activities against Akt1 (IC50)
T1 construct: purchased 32-021
In short: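 FP competition kinase assay: compounds (50 μM stock) with STK Substrate 3 and ATP, 1 h reaction at room temperature; stopped with stop/antibody mix, 4 h at room temperature, then polarization read. Inhibition derived from polarization values; IC50 calculated; triplicate wells.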

[2] = system: Human ovarian cancer cell strain OVCAR-8; assay: MTT assay, inhibition of tumor cell growth in vitro, 72 h; format: cell-based; settings: Homo sapiens, OVCAR-8, MTT, read-out: Antitumor proliferative activities of tumor cell (IC50, μM) OVCAR-8
In short: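 OVCAR8 cells in RPMI 1640 plus FBS were seeded at 4000 cells/well and exposed for 72 h at 37 °C to compound at 50, 10, 2, 0.4 and 0.08 μM final, with 1% DMSO as blank. Inhibition was calculated from OD relative to control, and IC50 was derived by the Bliss method.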

[3] = system: human colon cancer cell strain HCT-116; assay: as above; format: cell-based; settings: Homo sapiens, HCT-116, MTT, read-out: Antitumor proliferative activities of tumor cell (IC50, μM) HCT-116 (converted)
In short: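 Cells in RPMI 1640 with FBS, 4000 cells/well, exposed 72 h at 37 °C, 5% CO2 to final 50, 10, 2, 0.4 and 0.08 μM; 1% DMSO blank. MTT OD gives % inhibition versus control; IC50 derived by Bliss method.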

T1 sequence (P31749 whole entry): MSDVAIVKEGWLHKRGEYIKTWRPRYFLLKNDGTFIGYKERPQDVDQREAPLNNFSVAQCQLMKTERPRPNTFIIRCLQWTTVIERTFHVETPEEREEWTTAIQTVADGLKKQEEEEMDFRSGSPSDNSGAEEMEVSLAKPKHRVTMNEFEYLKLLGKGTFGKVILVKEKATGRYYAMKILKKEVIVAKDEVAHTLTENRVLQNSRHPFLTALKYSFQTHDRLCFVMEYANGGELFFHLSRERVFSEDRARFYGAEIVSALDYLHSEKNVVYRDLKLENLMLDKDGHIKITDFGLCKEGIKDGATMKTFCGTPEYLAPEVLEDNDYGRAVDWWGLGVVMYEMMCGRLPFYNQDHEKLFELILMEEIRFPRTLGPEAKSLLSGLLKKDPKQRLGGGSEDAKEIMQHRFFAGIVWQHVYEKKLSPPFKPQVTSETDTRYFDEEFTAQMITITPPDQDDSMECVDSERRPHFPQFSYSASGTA

Structure (SMILES) | pIC50 [1] | IC50 [2] | IC50 [3]
Cn1ncc(Br)c1-c1coc(C(=O)N[C@H]2CNCC[C@@H]2c2ccc(Cl)cc2)c1 (racemic) [Compound 26, 4-(4-bromo-1-methyl-1H-pyrazol-5-yl)-N-(3,4-trans-4-(4-chlorphenyl)piperidin-3-yl)furan-2-formamide] | 7.47 | 4.89 µM | 2.16 µM
Cn1ncnc1-c1cc(C(=O)N[C@H]2CNCC[C@@H]2c2ccc(C(F)(F)F)cc2)oc1Br (racemic) [Compound 3, 5-bromo-4-(1-methyl-1H-1,2,4-triazol-5-yl)-N-(3,4-trans-4-(4-trifluoromethylphenyl)piperidin-3-yl)furan-2-formamide] | 7.37 | 13 µM | 8.9 µM
CCc1cnn(C)c1-c1cccc(C(=O)N[C@H]2CNCC[C@@H]2c2ccc(Cl)cc2)c1Cl (racemic) [Compound 53, 2-chloro-3-(4-ethyl-1-methyl-1H-pyrazol-5-yl)-N-(3,4-trans-4-(4-chlorophenyl)piperidin-3-yl)phenyl formamide] | 7.54 | 4.69 µM | 2.66 µM
Cn1nccc1-c1coc(C(=O)N[C@H]2CNCC[C@@H]2c2ccccc2)c1 (racemic) [Compound 1, 4-(1-methyl-1H-pyrazol-5-yl)-N-(3,4-trans-4-phenylpiperidin-3-yl)furan-2-formamide] | 7.14 | 1.34 µM | 3.98 µM
Cc1cc(C(=O)N[C@@H]2CNC(CCN3CCCCC3)C[C@H]2c2ccc(F)c(F)c2)ccc1-c1c(Cl)cnn1C (stereo partly drawn) [Compound 102, 4-(4-chloro-1-methyl-1H-pyrazol-5-yl)-N-((3S,4S)-4-(3,4-difluorophenyl)-6-(2-(piperidin-1-yl)ethyl)piperidin-3-yl)-3-methylbenzamide] | 8.10 | 0.34 µM | 0.8 µM
CNC(=O)CC1C[C@@H](c2ccc(Cl)c(Cl)c2)[C@H](NC(=O)c2cc(-c3c(Cl)cnn3C)c(Cl)o2)CN1 (stereo partly drawn) [Compound 118, 5-chloro-4-(4-chloro-1-methyl-1H-pyrazol-5-yl)-N-((3S,4S)-4-(3,4-dichlorophenyl)-6-(2-(methylamido)-2-oxoethyl)piperidin-3-yl)furan-2-formamide] | 8.52 | 4.02 µM | 3.68 µM
CCc1cnn(C)c1-c1cc(C(=O)N[C@H]2CNCC[C@@H]2c2ccc(Cl)cc2)nc(C)n1 (racemic) [Compound 47, 2-methyl-6-(1-methyl-4-ethyl-1H-pyrazol-5-yl)-N-(3,4-trans-4-(4-chlorophenyl)piperidin-3-yl)pyrimidine-4-formamide] | 6.67 | 5.57 µM | 3.11 µM
Cn1ncc(Cl)c1-c1ccc(C(=O)N[C@@H]2CNCC[C@H]2c2ccc(Cl)c(C(F)(F)F)c2)nc1 [Compound 96, 5-(4-chloro-1-methyl-1H-pyrazol-5-yl)-N-((3S,4S)-4-(4-chloro-3-(trifluoromethyl)phenyl)piperidin-3-yl)picolinamide] | 8.05 | 2.41 µM | 0.78 µM
CCc1c(-c2ncnn2C)c(Br)n(C)c1C(=O)N[C@H]1CNCC[C@@H]1c1cccc(C(F)(F)F)c1 (racemic) [Compound 4, 5-bromo-3-ethyl-1-methyl-4-(1-methyl-1H-1,2,4-triazol-5-yl)-N-(3,4-trans-4-(3-trifluoromethylphenyl)piperidin-3-yl)-1H-pyrrole-2-formamide] | 7.32 | 5.19 µM | 15.6 µM
CNC(=O)CC1C[C@@H](c2ccc(F)c(F)c2)[C@H](NC(=O)c2ccc(-c3c(Cl)cnn3C)cc2)CN1 (stereo partly drawn) [Compound 98] | 8.40 | 1.82 µM | 0.92 µM
Cn1ncc(Br)c1-c1coc(C(=O)N[C@H]2CNCC[C@@H]2c2ccccc2)c1 (racemic) [Compound 22, 4-(4-bromo-1-methyl-1H-pyrazol-5-yl)-N-(3,4-trans-4-phenylpiperidin-3-yl) furan-2-formamide] | 6.97 | 7.89 µM | 12.2 µM
C=CCC1C[C@@H](c2ccc(Cl)c(Cl)c2)[C@H](NC(=O)c2cc(-c3c(Cl)cnn3C)c(Cl)o2)CN1 (stereo partly drawn) [Compound 106, N-((3S,4S)-6-allyl-4-(3,4-dichlorophenyl)piperidin-3-yl)-5-chloro-4-(4-chloro-1-methyl-1H-pyrazol-5-yl)furan-2-formamide] | 8.70 | 1.02 µM | 2.51 µM
Cn1ncc(Br)c1-c1coc(C(=O)N[C@H]2CNCC[C@@H]2c2ccc(F)c(F)c2)c1 (racemic) [Compound 28, 4-(4-bromo-1-methyl-1H-pyrazol-5-yl)-N-(3,4-trans-4-(3,4-difluorophenyl)piperidin-3-yl)furan-2-formamide] | 7.21 | 3.38 µM | 11.8 µM

Other lines, results leading:

pIC50 [1] | IC50 [2] | IC50 [3] | Structure (SMILES)
6.92 | 10.7 µM | 21 µM | Cn1nccc1-c1coc(C(=O)N[C@H]2CNCC[C@@H]2c2ccc(F)c(F)c2)c1 (racemic) [Compound 21, 4-(1-methyl-1H-pyrazol-5-yl)-N-(3,4-trans-4-(3,4-difluorophenyl)piperidin-3-yl)furan-2-formamide]
7.09 | 12.9 µM | 2.5 µM | Cc1cccc([C@H]2CCNC[C@@H]2NC(=O)c2cc(C)c(-c3c(Br)cnn3C)cc2C)c1 (racemic) [Compound 57, 2,5-dimethyl-4-(4-bromo-1-methyl-1H-pyrazol-5-yl)-N-(3,4-trans-4-(3-methylphenyl)piperidin-3-yl)phenyl formamide]
8.15 | 3.21 µM | 2.56 µM | CNC(=O)CC1C[C@@H](c2cccc(F)c2)[C@H](NC(=O)c2cc(Cl)c(-c3c(Cl)cnn3C)s2)CN1 (stereo partly drawn) [Compound 149, 4-chloro-5-(4-chloro-1-methyl-1H-pyrazol-5-yl)-N-((3S, 4S)-4-(3-fluorophenyl)-6-(2-(methylamido)-2-oxoethyl)piperidin-3-yl)thiophene-2-formamide]
7.06 | 0.94 µM | 2.35 µM | CCc1sc(C(=O)N[C@H]2CNCC[C@@H]2c2cnc3ccccc3c2)cc1-c1c(C(C)C)cnn1C (racemic) [Compound 9]
8.10 | 1.07 µM | 4.21 µM | Cc1occc1-c1cc(-c2c(Cl)cnn2C)ccc1C(=O)N[C@@H]1CNCC[C@H]1c1cccc(F)c1 [Compound 88, 4-(4-chloro-1-methyl-1H-pyrazol-5-yl)-N-((3S,4S)-4-(3-fluorophenyl)piperidin-3-yl)-2-(2-methylfuran-3-yl)benzamide]
6.17 | 13.3 µM | 3.14 µM | CCCc1cc(C(=O)N[C@H]2CNCC[C@@H]2c2cc(OC)cc(OC)c2)ccc1-c1c(Br)cnn1C (racemic) [Compound 54, 3-n-propyl-4-(4-bromo-1-methyl-1H-pyrazol-5-yl)-N-(3,4-trans-4-(3,5-dimethoxyphenyl)piperidin-3-yl)phenyl formamide]
8.05 | 1.3 µM | 0.78 µM | Cn1ncc(Cl)c1-c1cc(C(=O)N[C@@H]2CNC(CCN3CCOCC3)C[C@H]2c2ccc(Cl)c(Cl)c2)oc1Cl (stereo partly drawn) [Compound 109, 5-chloro-4-(4-chloro-1-methyl-1H-pyrazol-5-yl)-N-((3S,4S)-4-(3,4-dichlorophenyl)-6-(2-(morpholin-1-yl)ethyl)piperidin-3-yl)furan-2-formamide]
8.70 | 1.33 µM | 1.21 µM | Cn1ncc(Cl)c1-c1cc(C(=O)N[C@@H]2CNC(CCOC(=O)C(F)(F)F)C[C@H]2c2ccc(F)c(F)c2)oc1Cl (stereo partly drawn) [Compound 132, 2-((4S,5S)-5-(5-chloro-4-(4-chloro-1-methyl-1H-pyrazol-5-yl)furan-2-formamido)-4-(3,4-difluorophenyl)piperidin-2-yl)ethyl 2,2,2-trifluoroacetate]
7.92 | 1.2 µM | 0.8 µM | C[C@H]1CNC[C@@H](NC(=O)c2cc(-c3c(Cl)cnn3C)c(Cl)s2)[C@@H]1c1cccc(F)c1 [Compound 135, 5-chloro-4-(4-chloro-1-methyl-1H-pyrazol-5-yl)-N-((3S, 4S, 5R)-4-(3-fluorophenyl)-5-methylpiperidin-3-yl)thiophene-2-formamide]
6.85 | 7.88 µM | 8.33 µM | Cc1nc(C(=O)N[C@H]2CNCC[C@@H]2C2CCCNC2)ccc1-c1c(Br)cnn1C (mixture of isomers) [Compound 59, 6-methyl-5-(4-bromo-1-methyl-1H-pyrazol-5-yl)-N-(3,4-trans-4-(piperidin-3-yl)piperidin-3-yl)pyridinyl-2-formamide]
9.00 | 0.56 µM | 0.34 µM | COCCC1C[C@@H](c2ccc(Cl)c(Cl)c2)[C@H](NC(=O)c2cc(-c3c(Cl)cnn3C)c(Cl)o2)CN1 (stereo partly drawn) [Compound 124, 5-chloro-4-(4-chloro-1-methyl-1H-pyrazol-5-yl)-N-((3S,4S)-4-(3,4-dichlorophenyl)-6-(2-methoxyethyl)piperidin-3-yl)furan-2-formamide]
7.49 | 3.68 µM | 10.8 µM | Cc1[nH]c(C(=O)N[C@H]2CNCC[C@@H]2c2ccncc2)cc1-c1c(Br)cnn1C (racemic) [Compound 6, 5-methyl-4-(4-bromo-1-methyl-1H-pyrazol-5-yl)-N-(3,4-trans-4-(pyridin-4-yl)piperidin-3-yl)-1H-pyrrole-2-formamide]
